Reference: US20240415845A1, “Compositions of Iboga Alkaloids and Methods of Treatment” (priority 2022, published 2024)

Assays:
[1] = test system: special operations veterans with combat and/or blast exposure; experiment: Montgomery-Asberg Depression Rating Scale (MADRS), incl. suicidal ideation item Q10; format: in vivo, human; details: for Suicidal Ideation (MADRS Q10), % Reporting: only participants with non-zero suicidal ideation at baseline (N 14), baseline 100%
Description: The pre-specified primary outcome was change in the World Health Organization Disability Assessment Schedule 2.0 (WHODAS) (Gold L. H. et al., J. Am. Acad. Psychiatry Law 42, 9 (2014)) from baseline to post-treatment, with change from baseline to the one-month follow-up a secondary outcome. Additional pre-specified secondary outcomes included post-treatment changes on the Clinician Administered PTSD Scale (CAPS-5; Weathers, F. W. et al., Psychol. Assess., 30, 383-395 (2018)), Montgomery-Åsberg Depression Rating Scale (MADRS; Montgomery, S. A., Br. J. Psychiatry J. Ment. Sci., 134, 382-389 (1979)) and the Hamilton-Anxiety Rating Scale (HAM-A; Bruss, G. S., et al., Psychiatry Res., 53, 191-202 (1994)). […] An additional dose of magnesium was administered approximately 12 hours later. To assess the significance of post-treatment changes, linear mixed effects (LME) models were used for each outcome measure. False Discovery Rate (FDR; Benjamini, Y. et al., J. R. Stat. Soc. Ser. B Methodol., 57, 289-300 (1995)) was applied to correct for multiple comparisons.
(§1) To further assess changes in comorbid psychiatric symptoms identified by the models, mean percent reduction, response rate, and remission rate according to the CAPS-5, MADRS and HAM-A (Table 1) were calculated. Response on the CAPS-5, MADRS, and HAM-A was defined as a reduction of at least 10 points (Mitchell, J. M. et al., Nat. Med. 27, 1025-1033(2021)), 50% (Leucht, S. et al., J. Affect. Disord. 210, 287-293 (2017)), and 50% (McIntyre, A. et al., Depress. Anxiety 24, 487-494 (2007)), respectively; remission as loss of diagnosis and a total score below 12 (Mitchell, J. M. et al. supra), <8 (Leucht, S. et al. supra), and <8(McIntyre, A. et al., supra), respectively.
With subjects in the fasting state, an intravenous infusion of 1 gram of magnesium sulfate was administered 1-2 hours prior to treatment. […] Medical staff (MD, RN, or EMT) were onsite at a ratio of at least 1 staff per 2 patients throughout treatment for monitoring and management, but no specific coaching or psychological support was provided during treatment.
Clinician administered scales included CAPS-5 (Clinician-administered PTSD Scale for DSM-5), which is a gold standard assessment of PTSD symptom severity; MADRS (Montgomery-Asberg Depression Rating Scale), a measure for depressive symptom severity: and Hamilton-Anxiety Rating Scale (HAM-A) (Shear, M. K. et al., Depress. Anxiety 13, 166-178 (2001)) a measure for anxiety symptom severity: SCID-5 (Structured Clinical Interview for DSM-5) Overview for a historical and environmental context of symptom presentation: MINI DSM-5 (Mini International Neuropsychiatric Interview from DSM-5) for a structured psychodiagnostics assessment: BAT-L (Boston Assessment of TBI-Lifetime) for a lifetime history of TBI and blast exposure: and Ohio State University TBI Identification Method (Short Form) for a lifetime history of TBI. MADRS testing provides an indication of depressive symptoms, CAPS-5 provides an indication of PTSD and SIGH-A provides an indication of anxiety. Collectively these overlap to provide indication of mood, concentration, sleep and tension.
The MADRS is a clinician-administered 10-item scale assessing the severity of depression symptoms. Items are rated on a scale of 0 (no abnormality) to 6 (severe) (Montgomery, S. A. et al., Br. J. Psychiatry J. Ment. Sci. 134, 382-389 (1979)). A total score of 0-6 indicates no depression, 7-19 mild depression, 20-34 moderate depression, 35-59 severe depression, and 60+ very severe depressive symptoms (Müller, M. J., J. Affect. Disord. 77, 255-260 (2003)).

[2] = test system: special operations veterans with combat and/or blast exposure; experiment: Clinician-rated psychiatric assessments taken together (CAPS-5, MADRS, HAM-A); format: in vivo, human
Protocol: as §1, with “respectively. One participant's baseline scores met criteria for remission in all three scales and so were excluded from the calculation of response and remission rates, leaving 29 participants in these specific analyses.” for “respectively.”
The results were similar, with remission rates at one-month follow up of at least 67% (Table 1-3 in Example 1). To determine if the participants with more severe TBI history may be biasing results, a sensitivity analysis excluding the participants with non-mild TBI; results was done, again with the results largely unchanged (Table 1-4 in Example 1), with remission rates at one-month follow up of at least 85%.

[3] = 1-mo. post, only participants meeting relevant MINI diagnostic criteria
[4] = 1-mo. post, only participants with mild TBI
[5] = 1-wk. post, only participants meeting relevant MINI diagnostic criteria
[6] = 1-wk. post, only participants with mild TBI
[7] = one-week and one-month post, 29 participants

Compound: CCC1CC2CC3c4[nH]c5ccc(OC)cc5c4CCN(C2)C13 (stereo not drawn) [ibogaine, Ibogaine]
- MADRS % Reduction vs Baseline [1, 3]: 81% ± 21%
- MADRS Remission Rate [1, 3]: 67%
- MADRS Response Rate [1, 3]: 93%
- MADRS score ([1]; 1-mo. post, only participants meeting relevant MINI diagnostic criteria at baseline (N 15), baseline 31.3 ± 6.5): 6.4
- MADRS % Reduction vs Baseline [1, 4]: 87% ± 17%
- MADRS Remission Rate [1, 4]: 85%
- MADRS Response Rate [1, 4]: 96%
- MADRS score ([1]; 1-mo. post, only participants with mild TBI (N 28), baseline 25.2 ± 8.7): 3.6
- Suicidal Ideation (MADRS Q10), % Reporting ([1]; 1-mo. post): 14%
- MADRS score ([1]; 1-wk post, only participants meeting relevant MINI diagnostic criteria at baseline (N 15), baseline 31.3 ± 6.5): 3.6
- Suicidal Ideation (MADRS Q10), % Reporting ([1]; 1-wk post): 0%
- MADRS % Reduction vs Baseline [1, 5]: 89% ± 11%
- MADRS Remission Rate [1, 5]: 73%
- MADRS Response Rate [1, 5]: 100%
- MADRS % Reduction vs Baseline [1, 6]: 87% ± 24%
- MADRS Remission Rate [1, 6]: 85%
- MADRS Response Rate [1, 6]: 100%
- MADRS score ([1]; 1-wk. post, only participants with mild TBI (N 28), baseline 25.2 ± 8.7): 2.7
- subjects meeting criteria for remission with a MADRS score of less than 7 ([1]; FIG. 4B): 82%
- subjects meeting criteria for response, reduction of more than 50% in MADRS symptom severity ([1]; FIG. 4B): 96%
- MADRS, effect size D ([1]; baseline vs 1-mo. post, only participants meeting relevant MINI diagnostic criteria (N 15)): 3.15
- MADRS, effect size D ([1]; baseline vs 1-mo. post, only participants with mild TBI (N 28)): 2.70
- MADRS, effect size D ([1]; baseline vs 1-wk post, only participants with mild TBI (N 28)): 2.55
- MADRS, effect size D ([1]; baseline vs 1-wk. post, only participants meeting relevant MINI diagnostic criteria (N 15)): 4.11
- MADRS, effect size D ([1]; baseline vs one-month post, all participants): 2.80
- MADRS, effect size D ([1]; baseline vs one-week post, all participants): 2.65
- MADRS Remission Rate ([1]; one-month post, 29 participants, remission = score <8): 83%
- MADRS Response Rate ([1]; one-month post, 29 participants, response = reduction of at least 50%): 97%
- MADRS score ([1]; one-month post, all participants, baseline 25.6 ± 8.7, mean ± SD): 3.8
- MADRS % Reduction vs Baseline ([1]; one-month post, all participants, mean ± SD): 87% ± 17%
- MADRS Remission Rate ([1]; one-week post, 29 participants, remission = score <8): 83%
- MADRS Response Rate ([1]; one-week post, 29 participants, response = reduction of at least 50%): 100%
- MADRS % Reduction vs Baseline ([1]; one-week post, all participants, mean ± SD): 87% ± 23%
- remission rates on CAPS-5, MADRS and HAM-A ([2]; one-month follow up, excluding participants with non-mild TBI): at least 85%
- remission rates on CAPS-5, MADRS and HAM-A ([2]; one-month follow up, subgroups meeting criteria for the disorder assessed by the scale): at least 67%
- remission rates on CAPS-5, MADRS and HAM-A [2, 7]: at least 83%
- response rates on CAPS-5, MADRS and HAM-A [2, 7]: at least 93%
- mean percent reductions on CAPS-5, MADRS and HAM-A ([2]; one-week and one-month post, all participants): at least 81%
- remission rates for comorbid PTSD, depression, and anxiety ([2]; secondary analyses): around 80%
